Measurements reported in US20220362177A1, “CERAMIDE RATIOS AS PREDICTIVE AND THERAPEUTIC BIOMARKERS FOR LEUKEMIAS” (University of Virginia Patent Foundation, priority 2019, published 2022).

Columns and labels:
Mcl-1 = experiment: Western blot of treated MOLM-14 cells; type: cell-based; conditions: MOLM-14, 24 hours
Experimental: After centrifugation for 15 minutes at 13-14000×g at 10° C. supernatants were mixed with one-third of a volume of NUPAGE™ LDS 4× Sample Buffer (Thermo Fisher Scientific) containing 5% 2-mercaptoethanol. Protein samples were prepared by heating at 37° C. for 10 min after the addition of denaturing sample buffer. […] Primary and secondary antibodies were to diluted in 0.05% TBS/Tween-20 containing 0.05% Casein Blocker. Protein bands were visualized using a commercially available chemiluminescence kit (Thermo Fisher Scientific) or by infrared laser scanner using ChemiXX6 G:box imager (Syngene, Frederick, Md., United States of America).

Survivin = experiment: Western blot of treated MOLM-14 cells; type: cell-based; conditions: MOLM-14, 24 hours, independently
Experimental: (§1) FIGS. 7A-7I. CAV treatment alters expression of genes involved in cell survival relevant to AraC and Venetoclax resistance mechanism. MOLM-14 cells were treated with the listed conditions for 24 hours and protein harvested. Western blots were performed and quantitated via densitometry. Representative blots are shown in FIG. 7A and quantification in FIGS. 7B-7I. *: significant to Vehicle.
(§2) Western blotting: Whole cell lysates were prepared by dissolving cells in FOCUS™ Extraction Buffer III (G-Biosciences, St. Louis, Mo., United States of America; Catalog No. 786-222) containing protease inhibitors (Thermo Fisher Scientific Catalog No. A32955) for 10-15 minutes on ice with occasional shaking. After centrifugation for 15 minutes at 13-14000×g at 10° C. supernatants were mixed with one-third of a volume of NUPAGE™ LDS 4× Sample Buffer (Thermo Fisher Scientific) containing 5% 2-mercaptoethanol. Protein samples were prepared by heating at 37° C. for 10 min after the addition of denaturing sample buffer. Proteins were separated using SDS-PAGE on a 4-12% gel (Thermo Fisher Scientific) and transferred to Immobilon membrane (Bio-Rad). […]

XIAP = experiment: Western blot of treated MOLM-14 cells; type: cell-based; conditions: MOLM-14, 24 hours
Experimental: as §1, §2

C1498 AML cells = experiment: Syngeneic C1498-luc AML model in C57BL/6J mice; type: in vivo, mouse
Experimental: FIG. 8C: Survival of C1498-bearing C57BL/6J mice were treated with either Control (Lip-Ghost), CNL (31.2 mg/kg), Cytarabine (75 mg/kg) or CNL+Cytarabine.
We initially utilized the immune-compromised NRG mice engrafted with MOLM-13 cells expressing luciferase. Mice were engrafted, treated with the various drug combinations, and disease burden measured by live animal luminescence and Kaplan-Meier curve. […] C1498 cells are a de novo AML cell line from a C57-blkJ mouse. […] Given this, no Venetoclax groups were included. C57-blkJ mice were injected with C1498 AML cells transduced to express luciferase.

ceramide levels = experiment: Lipidomics (LC/MS) of ceramide levels in treated cells; type: cell-based; conditions: 24 hrs
From the text: Lipidomics: Lipids were extracted from cell lysates and analyzed on an Acquity I-Class/Xevo TQ-S Micro IVD System (Waters Corporation, Milford, Mass., United States of America) as described previously (Pearson et al. (2020) Ceramide Analogue SACLAC Modulates Sphingolipid Levels and MCL-1 Splicing to Induce Apoptosis in Acute Myeloid Leukemia. Mol Cancer Res 18(3):352-363). Mass spectrometry peaks were compared to internal standards, and all data are represented as picomoles of lipid per milligram of protein.
To determine potential metabolic mechanism underlying the efficacy of combinatorial CNL/AraC/Venetoclax (CAV) treatment, lipids were harvested to measure the effect of Venetoclax and AraC upon CNL metabolism by LC/MS. Cells were treated individually or in combination with CNL, Ara-C, and/or Venetoclax for 24 hrs. […] This lead to an increase in the C16/C24 ratio, which might support a pro-mitogenic response (FIG. 6H).

MOLM-14 = experiment: MTS cell viability assay; type: cell-based; conditions: MOLM-14, ceramides for 24 hours, with CNL
Experimental: FIG. 4. Ceramide chain length altered biological and biophysical responses. MOLM-14 cells were treated with the indicated ceramides for 24 hours and viability was assessed by MTS.
MTS Cell Viability Assay: Cytotoxicity of nanoliposomal ceramide in AML cells was measured by plating 15,000 cells/well into 96-well plates followed by growth for 24 hours in a humidified 37° C. cell culture incubator in the presence of ghost liposomes, CNL or other drugs for 24 hours in 10% serum medium. After 24 h, MTS/PMS mixture was added and adsorption was read at 560 nm using Bio-Tek plate reader.
Cell viability MTS assays were performed in three AML cells lines: OCI-AML2, KG-1, AND MOLM-14 to determine their sensitivities to co-treatment with CNL, Ara-C, and Venetoclax. Table 1 summarized these cell lines, their sources, and the known driver mutations that are present in the cell lines. The cells lines were treated with concentrations that had been determined to be less than the EC50 so any synergistic or additive effects could be observed.

AML cells = conditions: recent studies by others; cited from earlier work

Nc1ccn([C@@H]2O[C@H](CO)[C@@H](O)[C@@H]2O)c(=O)n1 [AraC, cytarabine]
Mcl-1 expression (Mcl-1): not
Survivin expression levels (Survivin): increased expression levels
XIAP expression (XIAP): not
median survival time (C1498 AML cells; C1498-bearing C57BL/6J mice, CNL 31.2 mg/kg, Cytarabine 75 mg/kg, treated 7 days): 41 days
survival (C1498 AML cells; C1498 model, single agent): moderate increase in survival
ceramide levels (ceramide levels; single agent): significantly elevated
ceramide levels (ceramide levels; with co-treatment of CNL): raise ceramide levels

CCCCCCCCCCCCC/C=C/[C@@H](O)[C@H](CO)NC(=O)CCCCCCCCCCCCCCC [C16 ceramide]
potentiation of CNL-induced cell death (MOLM-14): potentiated

CCCCCCCCCCCCC/C=C/[C@@H](O)[C@H](CO)NC(=O)CCCCCCCCCCCCCCCCCCCCCCC [C24 ceramide]
potentiation of CNL-induced cell death (MOLM-14): not

CCCCCCCCc1ccc(CCC(N)(CO)CO)cc1 [FTY720]
apoptosis / death of AML cells (AML cells): rapidly induced ceramide-mediated apoptosis
